According to patent US20260083865A1, “PROSTATE SPECIFIC MEMBRANE ANTIGEN (PSMA) LIGANDS AND USE THEREOF” (priority 2022, published 2026):
Read-outs that look alike come from different tables or passages of the source. Numbered stars: 1 amine (or outer) side, 2 acyl side, 3 side chain; on linkers, the order of the positions; unused ones are H or OH. Bridge positions count the residues as written; N and C are the ends. Square brackets hold non-standard residues; d marks the D form. Peptide text beside a SMILES is read from it. * marks the point of attachment. DOTA = O=C(O)CN1CCN(CC(=O)O)CCN(CC(=O)*)CCN(CC(=O)O)CC1; Phe(4-Cl) = N[C@@H](Cc1ccc(Cl)cc1)C(=O)O; Arg(Me) = CNC(=N)NCCC[C@H](N)C(=O)O; X4 = O=C(CN1CCC(N[*:1])CC1)[*:2]; X1 = O=C(CC1CCN([*:1])CC1)[*:2]; Lys(Me) = CNCCCC[C@H](N)C(=O)O; Tle = CC(C)(C)[C@H](N)C(=O)O; 4Amb = NCc1ccc(C(=O)O)cc1; Nle = CCCC[C@H](N)C(=O)O; Aib = CC(C)(N)C(=O)O; CH2 = C([*:1])[*:2]; Ahx = NCCCCCC(=O)O

How the values were obtained:
[1] = target: T1, PSMA-expressing C4-2 cells (Homo sapiens, UniProt Q04609); experiment: FACS binding assay (competition with 50 nM PSM-0183); details: read-out: pIC50 [C4-2] CAT (converted)
T1 construct: PSMA-expressing C4-2 cells (ATCC, Cat. No. CRL-3314) were cultured in RPMI-1640; host or cells: C4-2 cells
How it was run: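 C4-2 cells were incubated 1 h at 4 °C with 50 nM AF488-labelled peptide PSM-0183 plus increasing test compound concentrations, then washed twice in ice-cold buffer. Median fluorescence in the AF488 channel was read by flow cytometry. IC50/pIC50 was derived by 4PL fitting of MFI versus concentration.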

[2] = target: T2, Fc-fusion protein of human PSMA (hPSMA-Fc) (Homo sapiens, UniProt Q04609); experiment: Surface plasmon resonance assay (Biacore T200, single cycle kinetic); assay type: binding; details: hPSMA-Fc, 25° C., read-out: pKD CAT (converted)
T2 construct: purchased Acro Biosystems PSA-H5264
How it was run: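 hPSMA-Fc was captured (~1000 RU) on an Fc-binding-peptide CM5 chip, and compounds were run in single cycle kinetic mode at 25° C in HBST with 0.1% DMSO. Double-blank-corrected sensorgrams were fitted to a 1:1 Langmuir model to give KD, reported as pKD.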

[3] = pIC50 category of FACS binding, C4-2 cells
[4] = pKD category for PSMA SPR activity assay
[5] = FACS binding, PSMA-expressing C4-2 cells, pIC50 category

T1 sequence (Q04609 whole entry): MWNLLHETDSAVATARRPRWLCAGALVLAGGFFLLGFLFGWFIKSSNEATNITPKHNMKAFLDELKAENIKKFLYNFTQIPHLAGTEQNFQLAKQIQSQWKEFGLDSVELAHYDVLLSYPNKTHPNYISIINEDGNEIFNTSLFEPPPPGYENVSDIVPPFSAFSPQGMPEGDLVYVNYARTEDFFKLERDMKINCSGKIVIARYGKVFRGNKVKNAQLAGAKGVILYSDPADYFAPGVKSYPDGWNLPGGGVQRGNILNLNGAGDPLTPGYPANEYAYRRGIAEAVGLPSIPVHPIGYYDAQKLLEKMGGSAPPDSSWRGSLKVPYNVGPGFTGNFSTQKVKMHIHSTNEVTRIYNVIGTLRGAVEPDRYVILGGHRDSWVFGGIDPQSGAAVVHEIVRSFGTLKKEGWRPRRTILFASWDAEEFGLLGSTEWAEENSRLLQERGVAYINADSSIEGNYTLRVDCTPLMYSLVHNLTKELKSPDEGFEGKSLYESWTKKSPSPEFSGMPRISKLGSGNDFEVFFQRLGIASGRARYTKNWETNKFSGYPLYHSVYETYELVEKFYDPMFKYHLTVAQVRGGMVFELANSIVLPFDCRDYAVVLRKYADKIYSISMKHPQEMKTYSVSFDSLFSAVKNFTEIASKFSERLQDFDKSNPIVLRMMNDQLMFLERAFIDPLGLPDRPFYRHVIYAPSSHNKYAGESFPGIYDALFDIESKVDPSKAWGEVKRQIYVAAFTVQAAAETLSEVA
T2 sequence (Q04609 44-750 limits assumed): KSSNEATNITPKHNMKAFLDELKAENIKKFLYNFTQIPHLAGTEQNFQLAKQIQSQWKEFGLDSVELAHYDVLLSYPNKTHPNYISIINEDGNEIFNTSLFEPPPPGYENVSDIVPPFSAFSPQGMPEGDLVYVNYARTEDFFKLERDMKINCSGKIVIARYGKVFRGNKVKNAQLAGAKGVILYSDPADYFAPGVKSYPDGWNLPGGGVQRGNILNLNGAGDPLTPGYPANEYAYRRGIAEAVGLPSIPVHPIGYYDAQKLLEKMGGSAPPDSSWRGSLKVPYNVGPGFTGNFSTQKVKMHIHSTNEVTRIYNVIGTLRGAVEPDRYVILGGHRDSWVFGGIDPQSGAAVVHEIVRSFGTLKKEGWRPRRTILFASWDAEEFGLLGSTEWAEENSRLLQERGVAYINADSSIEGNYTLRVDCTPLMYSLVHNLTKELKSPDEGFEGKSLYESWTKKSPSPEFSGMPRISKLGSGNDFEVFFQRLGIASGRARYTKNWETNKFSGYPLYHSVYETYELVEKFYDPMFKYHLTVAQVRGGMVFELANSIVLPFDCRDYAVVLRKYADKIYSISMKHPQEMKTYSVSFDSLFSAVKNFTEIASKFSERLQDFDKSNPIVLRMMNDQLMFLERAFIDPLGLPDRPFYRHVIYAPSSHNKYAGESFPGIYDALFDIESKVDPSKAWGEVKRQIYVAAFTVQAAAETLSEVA

**Q.** With `C[C@@H](O)[C@H](NC(=O)[C@@H](NC(=O)[C@@H]1CSSC[C@H](NC(=O)[C@H](Cc2ccccc2)NC(=O)C(C)(C)NC(=O)[C@@H](NC(=O)CN2CCC(NC(=O)CN3CCN(CC(=O)O)CCN(CC(=O)O)CCN(CC(=O)O)CC3)CC2)[C@@H](C)O)C(=O)N[C@@H](CCCCN)C(=O)N[C@@H](CCCNC(=N)N)C(=O)NC(C)(C)C(=O)N[C@@H](CC(N)=O)C(=O)N1)C(C)(C)C)C(N)=O` [PSM-0543, DOTA-APAc-Thr-Aib-Phe-[Cys-Lys-Arg-Aib-Asn-Cys]-Tle-Thr-NH2] ({DOTA}-[X4]T[Aib]FCKR[Aib]NC[Tle]T-NH2; disulfide 5-10) as the compound, how does the IC50 [1, 3] read?
**A.** < 200 nM

**Q.** And the Kd [2, 4]?
**A.** < 12.6 nM

**Q.** Which results are given for `CC(=O)NC(C)(C)C(=O)N[C@@H](Cc1ccccc1)C(=O)N[C@H]1CSSC[C@@H](C(=O)N[C@H](C(=O)N[C@H](C(=O)N[C@@H](CC(=O)O)C(N)=O)[C@@H](C)O)C(C)(C)C)NC(=O)[C@H](CC(N)=O)NC(=O)C(C)(C)NC(=O)[C@H](CCCNC(=N)N)NC(=O)[C@H](CCCCN)NC1=O` [PSM-0442, Ac-Aib-Phe-[Cys-Lys-Arg-Aib-Asn-Cys]-Tle-Thr-Asp-NH2] (Ac-[Aib]FCKR[Aib]NC[Tle]TD-NH2; disulfide 3-8)?
**A.** IC50 [1, 3]: < 200 nM; Kd [2, 4]: < 12.6 nM

**Q.** How did the IC50 [1, 5] turn out when `CCCC[C@H](NC(=O)[C@@H]1CSSC[C@H](NC(=O)[C@H](Cc2ccccc2)NC(=O)[C@H](C)NC(=O)[C@@H](NC(C)=O)[C@@H](C)O)C(=O)N[C@@H](CCCCN)C(=O)N[C@@H](CCCNC(=N)N)C(=O)N[C@@H](C)C(=O)N2CCC[C@H]2C(=O)N1)C(=O)N[C@H](C(=O)N[C@@H](CC(=O)O)C(N)=O)[C@@H](C)O` [PSM-0286, Ac-Thr-Ala-Phe-[Cys-Lys-Arg-Ala-Pro-Cys]-Nle-Thr-Asp-NH2] (Ac-TAFCKRAPC[Nle]TD-NH2; disulfide 4-9) was run?
**A.** > 3160 nM

**Q.** What about the Kd ([2]; PSMA SPR assay, pKD category) of the same compound?
**A.** > 501 nM

**Q.** What does the source list for `C[C@@H](O)[C@H](NC(=O)[C@@H](NC(=O)[C@@H]1CSSC[C@H](NC(=O)[C@H](Cc2ccccc2)NC(=O)C(C)(C)NC(=O)c2ccc(CNC(=O)CN3CCN(CC(=O)O)CCN(CC(=O)O)CCN(CC(=O)O)CC3)cc2)C(=O)N[C@@H](CCCCN)C(=O)N[C@@H](CCCNC(=N)N)C(=O)NC(C)(C)C(=O)N[C@@H](CC(N)=O)C(=O)N1)C(C)(C)C)C(N)=O` [PSM-0270, DOTA-Pamb-Aib-Phe-[Cys-Lys-Arg-Aib-Asn-Cys]-Tle-Thr-NH2] ({DOTA-4Amb}-[Aib]FCKR[Aib]NC[Tle]T-NH2; disulfide 3-8)?
**A.** IC50 [1, 5]: < 200 nM; Kd ([2]; PSMA SPR assay, pKD category): < 12.6 nM

**Q.** How did the IC50 [1, 3] turn out when `CNCCCC[C@@H]1NC(=O)[C@@H](NC(=O)[C@H](Cc2ccc(Cl)cc2)NC(=O)C(C)(C)NC(=O)[C@@H](NC(=O)CC2CCN(C(=O)CN3CCN(CC(=O)O)CCN(CC(=O)O)CCN(CC(=O)O)CC3)CC2)[C@@H](C)O)CSCSC[C@@H](C(=O)N[C@H](C(N)=O)C(C)(C)C)NC(=O)[C@H](CC(N)=O)NC(=O)C(C)(C)NC(=O)[C@H](CCCNC(=N)NC)NC1=O` [PSM-0420, DOTA-Cmp-Thr-Aib-Pcf-[Smc-Lys(Me)-Arg(Me)-Aib-Asn-Cys]-Tle-NH2] ({DOTA}-[X1]T[Aib][Phe(4-Cl)]C[Lys(Me)][Arg(Me)][Aib]NC[Tle]-NH2; linker 5-10 via CH2) was run?
**A.** < 200 nM

**Q.** What about the Kd [2, 4] of the same compound?
**A.** < 12.6 nM

**Q.** Which results are given for `C[C@@H](O)[C@H](NC(=O)[C@@H](NC(=O)[C@@H]1CSSC[C@H](NC(=O)[C@H](Cc2ccccc2)NC(=O)C(C)(C)NC(=O)[C@@H](NC(=O)CCCCCNC(=O)CN2CCN(CC(=O)O)CCN(CC(=O)O)CCN(CC(=O)O)CC2)[C@@H](C)O)C(=O)N[C@@H](CCCCN)C(=O)N[C@@H](CCCNC(=N)N)C(=O)NC(C)(C)C(=O)N[C@@H](CC(N)=O)C(=O)N1)C(C)(C)C)C(N)=O` [PSM-0368, DOTA-Ahx-Thr-Aib-Phe-[Cys-Lys-Arg-Aib-Ass-Cys]-Tle-Thr-NH2] ({DOTA-Ahx}-T[Aib]FCKR[Aib]NC[Tle]T-NH2; disulfide 4-9)?
**A.** IC50 [1, 3]: < 200 nM; Kd [2, 4]: < 12.6 nM

**Q.** For `CNC(=N)NCCC[C@@H]1NC(=O)[C@H](CCCCN)NC(=O)[C@@H](NC(=O)[C@H](Cc2ccc(Cl)cc2)NC(=O)C(C)(C)NC(=O)[C@@H](NC(=O)CC2CCN(C(=O)CN3CCN(CC(=O)O)CCN(CC(=O)O)CCN(CC(=O)O)CC3)CC2)[C@@H](C)O)CSSC[C@@H](C(=O)N[C@H](C(N)=O)C(C)(C)C)NC(=O)[C@H](CC(N)=O)NC(=O)C(C)(C)NC1=O` [PSM-0345, DOTA-Cmp-Thr-Aib-Pcf-[Cys-Lys-Arg(Me)-Aib-Asn-Cys]-Tle-NH2] ({DOTA}-[X1]T[Aib][Phe(4-Cl)]CK[Arg(Me)][Aib]NC[Tle]-NH2; disulfide 5-10), which IC50 [1, 5] is on record?
**A.** < 200 nM

**Q.** And the Kd ([2]; PSMA SPR assay, pKD category)?
**A.** < 12.6 nM
